# According to patent publication US8735129B2, “Ginsenoside glycosidase derived from the genus Terrabacter, and use thereof” (Korea Research Institute of Bioscience and Biotechnology, priority 2009, dated 2014):
# Like-named read-outs stand apart in the source and are kept apart here.
# Tests used:
# recombinant Bgl-gyp17 [1] = assay: Enzymatic hydrolysis of PPD-type ginsenosides (TLC, HPLC, NMR); assay type: biochemical, Terrabacter ginsenosidimutans Gsoil 3082; conditions: 0.2 U enzyme, 50 mM sodium phosphate pH 7.0, 37° C., hydrolysis of glucoses at C-3
# Experimental: In order to analyze the specificity and selectivity of the recombinant enzyme for the hydrolysis of glucose at the C-3 and C-20 positions of PPD-type ginsenoside, ginsenoside Rb1, Rb2, Rc, Rd, and Rg3 were used as substrates. Each reaction mixture containing 0.2 U enzyme, 50 mM sodium phosphate buffer 0.1% (w/v) (pH 7.0), and the substrate was incubated at 37° C. Each sample was withdrawn at regular intervals, and an equal volume of water-saturated butanol was added to stop the reaction. The n-butanol fraction was evaporated to dryness, and any residual material was dissolved in CH3OH and then examined by TLC HPLC or NMR analysis.
# tumor cells = conditions: cited from earlier work
# [2] = cited from earlier work
# [3] = tested on: B16 melanoma, MK-1 (stomach cancer cell), ovarian cancer cell (HRA); conditions: MK-1, HRA; cited from earlier work
# [4] = tested on: F9 teratocarcinoma stem cells; conditions: cited from earlier work
# recombinant Bgl-gyp17 [5] = assay: Enzymatic hydrolysis of PPD-type ginsenosides (TLC, HPLC, NMR); assay type: biochemical, Terrabacter ginsenosidimutans Gsoil 3082; conditions: 1 mg/ml ginsenoside Rb1, enzyme concentrations lower than 0.01 mg/ml
# [6] = tested on: refolded recombinant ginsenoside glycosidase; assay: Reaction of refolded recombinant ginsenoside glycosidase with Rb1, TLC analysis; assay type: biochemical, Terrabacter ginsenosidimutans Gsoil 3082; conditions: 1 mg/ml Rb1 solution in 50 mM sodium phosphate
# Experimental: E. coli C41(DE3) containing an overexpressing plasmid was cultured in LB-ampicillin media at 37° C. when the OD value at 600 nm reached 0.6, and treated with 0.5 mM isopropyl-β-D-thiogalactopyranoside for 12 hours to induce protein expression. The bacterial cells were obtained by centrifugation at 4° C. and 5,000×g for 20 minutes. The cell pellet was resuspended in a solution (suspension) consisting of 50 mM sodium phosphate, 5 mM EDTA, and 1% Triton X-100 (pH 7.0) and subjected to ultrasonification. Since the recombinant ginsenoside glycosidase was expressed as an insoluble inclusion body, the sonicated lysate was centrifuged at 4° C. and 20,000×g for 30 minutes to obtain a pellet. The pellet was washed twice with a suspension solution in the absence of Triton X-100. The inclusion body was stirred in a solution containing 50 mM sodium phosphate, 5 mM EDTA, and 8 M urea (pH 8.0) at room temperature overnight for solubilization. After centrifugation (20,000×g, 30 minutes, 4° C.), the solubilized protein was diluted with 40 volumes of a refolding buffer containing 50 mM sodium phosphate, 5% glycerol, 0.05% polyethylene glycol and 0.5 mM sodium chloride at pH 7.0, and refolding of the protein was performed at 4° C. for 24 hours. […] Protein similarity was determined by 10% SDS-PAGE and Coomassie Blue staining. […]
# [7] = orally administered into the human body
compound,measurement,setting,value
"CC(C)=CCC[C@](C)(O[C@@H]1O[C@H](CO)[C@@H](O)[C@H](O)[C@H]1O)[C@H]1CC[C@]2(C)[C@@H]1[C@H](O)C[C@@H]1[C@@]3(C)CC[C@H](O[C@@H]4O[C@H](CO)[C@@H](O)[C@H](O)[C@H]4O)C(C)(C)[C@@H]3CC[C@]12C [F2, ginsenoside F2]",conversion of the ginsenoside by the enzyme (product),recombinant Bgl-gyp17 [1],further converted into C—K (compound K) and C—K
same,effect on proliferation of tumor cells,tumor cells,suppressing the proliferation of tumor cells
same,effect on multi-drug resistance,tumor cells; tumor cells and bacteria,reversing multi-drug resistance
"CC(C)=CCC[C@](C)(O[C@@H]1O[C@H](CO[C@@H]2O[C@@H](CO)[C@H](O)[C@H]2O)[C@@H](O)[C@H](O)[C@H]1O)[C@H]1CC[C@]2(C)[C@@H]1[C@H](O)C[C@@H]1[C@@]3(C)CC[C@H](O[C@@H]4O[C@H](CO)[C@@H](O)[C@H](O)[C@H]4O[C@@H]4O[C@H](CO)[C@@H](O)[C@H](O)[C@H]4O)C(C)(C)[C@@H]3CC[C@]12C [Rc, ginsenoside Rc]",in vivo absorption,[2]; [7],very low in vivo absorption
same,conversion of the ginsenoside by the enzyme (product),recombinant Bgl-gyp17 [1],C-Mc (compound Mc) and C-Mc
CC(C)=CCC[C@](C)(O[C@@H]1O[C@H](CO)[C@@H](O)[C@H](O)[C@H]1O)[C@H]1CC[C@]2(C)[C@@H]1[C@H](O)C[C@@H]1[C@@]3(C)CC[C@H](O)C(C)(C)[C@@H]3[C@@H](O[C@@H]3O[C@H](CO)[C@@H](O)[C@H](O)[C@H]3O[C@@H]3O[C@@H](C)[C@H](O)[C@@H](O)[C@H]3O)C[C@]12C [Re],in vivo absorption,[2]; [7],very low in vivo absorption
CC(C)=CCC[C@](C)(O[C@@H]1O[C@H](CO)[C@@H](O)[C@H](O)[C@H]1O)[C@H]1CC[C@]2(C)[C@@H]1[C@H](O)C[C@@H]1[C@@]3(C)CC[C@H](O)C(C)(C)[C@@H]3[C@@H](O[C@@H]3O[C@H](CO)[C@@H](O)[C@H](O)[C@H]3O)C[C@]12C [Rg1],in vivo absorption,[2]; [7],very low in vivo absorption
CC(C)=CCC[C@](C)(O)[C@H]1CC[C@]2(C)[C@@H]1[C@H](O)C[C@@H]1[C@@]3(C)CC[C@H](O)C(C)(C)[C@@H]3[C@@H](O[C@@H]3O[C@H](CO)[C@@H](O)[C@H](O)[C@H]3O)C[C@]12C [Rh1],inhibitory effects on proliferation,[3],strong inhibitory effects
same,induction of differentiation,[4],strongly induce the differentiation
"CC(C)=CCC[C@](C)(O)[C@H]1CC[C@]2(C)[C@@H]1[C@H](O)C[C@@H]1[C@@]3(C)CC[C@H](O[C@@H]4O[C@H](CO)[C@@H](O)[C@H](O)[C@H]4O)C(C)(C)[C@@H]3CC[C@]12C [Rh2, ginsenoside Rh2]",inhibitory effects on proliferation,[3],strong inhibitory effects
same,induction of differentiation,[4],strongly induce the differentiation
same,conversion of the ginsenoside by the enzyme (product),recombinant Bgl-gyp17 [1],converted Rh2 into PPD and PPD
CC(C)=CCC[C@](C)(O[C@@H]1O[C@H](CO[C@@H]2O[C@H](CO)[C@@H](O)[C@H](O)[C@H]2O)[C@@H](O)[C@H](O)[C@H]1O)[C@H]1CC[C@]2(C)[C@@H]1[C@H](O)C[C@@H]1[C@@]3(C)CC[C@H](O[C@@H]4O[C@H](CO)[C@@H](O)[C@H](O)[C@H]4O[C@@H]4O[C@H](CO)[C@@H](O)[C@H](O)[C@H]4O)C(C)(C)[C@@H]3CC[C@]12C [ginsenoside Rb1],in vivo absorption,"[2]; in vivo, po",very low in vivo absorption
same,conversion of the ginsenoside by the enzyme (product),recombinant Bgl-gyp17 [1],C—K
same,hydrolysis of the ginsenoside,recombinant Bgl-gyp17 [5],completely hydrolyzed to produce gyp XVII
same,conversion of the ginsenoside (TLC),[6],converted ginsenoside Rb1 into gyp XVII
CC(C)=CCC[C@](C)(O[C@@H]1O[C@H](CO[C@@H]2OC[C@H](O)[C@H](O)[C@H]2O)[C@@H](O)[C@H](O)[C@H]1O)[C@H]1CC[C@]2(C)[C@@H]1[C@H](O)C[C@@H]1[C@@]3(C)CC[C@H](O[C@@H]4O[C@H](CO)[C@@H](O)[C@H](O)[C@H]4O[C@@H]4O[C@H](CO)[C@@H](O)[C@H](O)[C@H]4O)C(C)(C)[C@@H]3CC[C@]12C [ginsenoside Rb2],in vivo absorption,"[2]; in vivo, po",very low in vivo absorption
same,conversion of the ginsenoside by the enzyme (product),recombinant Bgl-gyp17 [1],C—Y (compound Y)
same,conversion of the ginsenoside by the enzyme (product),recombinant Bgl-gyp17 [1]; listed as Rb2,C—Y
